Among the test systems are A498; ACHN; CCRF-CEM; COLO 205; EKVX; HCT-15; HOP-92; K562; M14; M19-MEL; OVCAR-3; OVCAR-5; OVCAR-8; RXF 393; SF-295; SN12C; UACC-257; UO-31; NCI-H522.
What all share (experiment): growth of human tumour cells (NCI), 48 h

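Grown in 96-well plates, cells were treated for 48 hours with each compound at five concentrations. Insufficient inhibition: endpoint recorded as highest concentration tested. Here, GI50 denotes the concentration required for 50% inhibition of growth.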 Calls of active or inactive are those of the source. No stated cut-off is given here; in the data, active = GI50 up to about 1.1 µM and inactive = higher. Starred links: 1 amine or outer side, 2 acyl side, 3 side chain; linkers in the order of their positions; H or OH if unused. Non-standard residues stand in square brackets, D forms with d. Residues, ends and D or L forms follow the SMILES beside them. ξ: configuration not given here. Ile(3ξ) = CCC(C)[C@H](N)C(=O)O; X35 = C=CCC(O[*:1])C(=O)[*:2]; NMeV = CN[C@H](C(=O)O)C(C)C; NMeA = CN[C@@H](C)C(=O)O; βAla = NCCC(=O)O A value given as a limit tells only on which side of the number the result lay.

As to `C=CCC1OC(=O)CCNC(=O)[C@H](C)N(C)C(=O)[C@H](C(C)C)N(C)C(=O)[C@H](C(C)CC)NC(=O)[C@@H]2CCCN2C1=O` (stereo partly drawn) (cyclo([Ile(3ξ)][NMeV][NMeA][βAla][X35]P)), the GI50 in the assay with A498 was > 71.6 µM (inactive); in the assay on ACHN, 27.9 µM (inactive); in the assay with CCRF-CEM it was 3.62 µM (inactive); with COLO 205 it was 5.14 µM (inactive); with EKVX it was > 100 µM (inactive); in the assay with HCT-15, 23 µM. Further, the GI50 in the assay with HOP-92 was 8.93 µM (inactive); with K562, 5 µM (inactive); in the assay with M14 it was 2.61 µM (inactive); in the assay on M19-MEL, 5.96 µM (inactive); in the assay with OVCAR-3 it was 13.3 µM (inactive); in the assay with OVCAR-5 it was 13.6 µM (inactive). Moreover, the GI50 with OVCAR-8 was 16.2 µM (inactive); with RXF 393, > 100 µM (inactive); in the assay on SF-295, 4.41 µM (inactive); in the assay on SN12C it was 11.5 µM (inactive); in the assay with UACC-257, 4.71 µM (inactive); with UO-31, 33 µM (inactive).

For `Nc1nc(Cl)c2ncn(CCCC(c3ccccc3)P(=O)(O)O)c2n1` (stereo not drawn), the GI50 with A498 was > 100 µM (inactive); with ACHN, > 100 µM (inactive); with CCRF-CEM it was > 100 µM (inactive); in the assay on COLO 205 it was > 100 µM (inactive); with HCT-15, above 100 µM; with HOP-92, > 100 µM (inactive). Further, the GI50 in the assay on K562, with M14, in the assay on M19-MEL, with NCI-H522, with OVCAR-3 and with OVCAR-5 was > 100 µM (inactive) in each case. Further, the GI50 in the assay with OVCAR-8, in the assay with SF-295, in the assay with SN12C, in the assay on UACC-257 and with UO-31 was > 100 µM (inactive) in each case.

As to `C/C(=N\NC(=O)CC#N)c1c(O)cc(C)oc1=O`, the GI50 is > 100 µM (inactive) in the assay with A498; > 100 µM (inactive) with ACHN; > 100 µM (inactive) in the assay with CCRF-CEM; > 100 µM (inactive) in the assay on EKVX; above 100 µM with HCT-15; > 100 µM (inactive) in the assay with HOP-92. Moreover, the GI50 in the assay with K562, in the assay on M14, in the assay with M19-MEL, in the assay on OVCAR-8, with SF-295 and in the assay on SN12C was > 100 µM (inactive) throughout. In addition, the GI50 with UACC-257 and in the assay on UO-31 was > 100 µM (inactive) throughout.

On to `Nc1nc(SCC(=O)c2ccccc2)c2[nH]cnc2n1`, for which the GI50 was > 100 µM (inactive) in the assay with A498; > 100 µM (inactive) in the assay with ACHN; 51.6 µM (inactive) with CCRF-CEM; > 100 µM (inactive) in the assay on COLO 205; above 100 µM in the assay with HCT-15; 46.5 µM (inactive) in the assay with HOP-92. Further, the GI50 with K562, in the assay with M14, in the assay on M19-MEL, in the assay with NCI-H522, in the assay on OVCAR-3 and in the assay on OVCAR-5 was > 100 µM (inactive) throughout. In addition, the GI50 with OVCAR-8, with SF-295, in the assay on SN12C and with UACC-257 was > 100 µM (inactive) in each case.

Turning to `O=c1c(Sc2c(O)c3ccccc3c3ccccc3c2=O)c(O)c2ccccc2c2ccccc12`, the GI50 was 25.4 µM (inactive) in the assay with ACHN; 14 µM (inactive) in the assay with CCRF-CEM; 41.6 µM (inactive) with COLO 205; 89.3 µM (inactive) in the assay on EKVX; 20.5 µM in the assay with HCT-15; 29.3 µM (inactive) in the assay on HOP-92. Besides, the GI50 was 33.7 µM (inactive) with K562; 46.6 µM (inactive) in the assay on M14; 31.8 µM (inactive) in the assay with M19-MEL; 13.4 µM (inactive) with NCI-H522; 44.6 µM (inactive) in the assay on OVCAR-3; 53.2 µM (inactive) in the assay with OVCAR-5. Also, the GI50 is 45.3 µM (inactive) in the assay on OVCAR-8; 50.7 µM (inactive) with RXF 393; 55.7 µM (inactive) in the assay with SF-295; 20.9 µM (inactive) in the assay with SN12C; 41.9 µM (inactive) with UACC-257; 43.6 µM (inactive) with UO-31.

(Values after ChEMBL document CHEMBL1201862, “PubChem BioAssay data set” (2004).)
